# Experimental data taken from the PolyMetriX glass transition set.
# ± gives the standard deviation of the reports.
row,Compound,glass transition temperature
1,*c1cccc(-c2nc3cc(-c4ccc5nc(*)c(-c6ccccc6)nc5c4)ccc3nc2-c2ccccc2)c1 (repeat unit),319.00 °C
2,*C(=O)Nc1ccc(NC(=O)Nc2ccc(NC(=O)c3ccc4c(c3)C(=O)N(c3ccc(NC(=O)Nc5ccc(N6C(=O)c7ccc(*)cc7C6=O)cc5)cc3)C4=O)cc2)cc1 (repeat unit),208.00 °C
3,*CNC(=O)CCCCCCCCC(=O)NCC1COC(*)CO1 (repeat unit),73.00 °C
4,*C(=O)c1ccc2c(c1)C(=O)N(c1cc(C(=O)O)cc(N3C(=O)c4ccc(*)cc4C3=O)c1)C2=O (repeat unit),314.00 °C
5,*CC(*)OC(=O)CCCC1CCCCC1 (repeat unit),-10.00 °C
6,*c1ccc(Oc2ccc(S(=O)(=O)c3ccc(Oc4ccc(C5(*)OC(=O)c6ccccc65)cc4)cc3)cc2)cc1 (repeat unit),247.00 °C
7,*CC(CC)(CCl)CO* (repeat unit),20.00 °C
8,*c1ccc(Oc2cccc(Oc3ccc(N4C(=O)c5cccc(Oc6cccc(Oc7cccc8c7C(=O)N(*)C8=O)c6)c5C4=O)cc3)c2)cc1 (repeat unit),193.00 °C
9,*O[Si](C)(C)O[Si](C)(C)O[Si](C)(C)O[Si](C)(C)c1cccc([Si](*)(C)C)c1 (repeat unit),-75.00 °C
10,*O[Si](C)(CCC(F)(F)C(F)(F)C(F)(F)C(F)(F)C(F)(F)C(F)(F)F)O[Si](C)(C)c1ccc([Si](*)(C)C)cc1 (repeat unit),-55.00 °C
11,*OC1C(CO)OC(*)C(O)C1O (repeat unit),332.00 °C
12,*Cc1cc(CNC(=O)c2cccc(C(=O)N*)c2)cc(C(C)(C)C)c1 (repeat unit),188.00 °C
13,*CC(*)c1cc(Br)ccc1OC(C)C (repeat unit),35.00 °C
14,*O[Si](C)(CCC(F)(F)F)CCC(F)(F)CC[Si](*)(C)CCC(F)(F)F (repeat unit),-38.00 °C
15,*CCCCCCN(CC(F)(F)C(F)(F)C(F)(F)C(F)(F)C(F)(F)C(F)(F)C(F)(F)F)C(=O)CCCCC(=O)N(*)CC(F)(F)C(F)(F)C(F)(F)C(F)(F)C(F)(F)C(F)(F)C(F)(F)F (repeat unit),119.40 °C
16,*c1ccc(Oc2ccc(-c3ccc(Oc4ccc(N5C(=O)c6cccc(Oc7cc(C(C)(C)C)c(Oc8cccc9c8C(=O)N(*)C9=O)cc7C(C)(C)C)c6C5=O)cc4)cc3)cc2)cc1 (repeat unit),275.00 °C
17,*c1c(C)cc(C(c2cc(C)c(N3C(=O)c4ccc(-c5ccc6c(c5)C(=O)N(*)C6=O)cc4C3=O)c(C)c2)c2cccc3ccccc23)cc1C (repeat unit),326.00 °C
18,*CCN(*)C(=O)CCCCCCC (repeat unit),10.00 °C

row,Compound,glass transition temperature
1,*c1ccc(C(=O)Nc2ccc(Oc3ccc(NC(=O)c4ccc(Oc5ccc(-c6nn(*)c(=O)c7ccccc67)c6ccccc56)cc4)cc3)cc2)cc1 (repeat unit),317.50 °C
2,*CCSSCCO* (repeat unit),-53.00 °C
3,*CCCCCCCCCCOC(=O)O* (repeat unit),-37.00 °C
4,*C(=O)c1ccc2c(c1)C(=O)N(c1cccc(C(=O)c3ccc(Cc4ccc(C(=O)c5cccc(N6C(=O)c7ccc(*)cc7C6=O)c5)cc4)cc3)c1)C2=O (repeat unit),260.50 °C
5,"*CC(*)c1cc(C)ccc1C (repeat unit) [Poly(2,5-dimethyl styrene) ]",143 ± 0.6 °C
6,*CC(*)[Si](C)(C)Cc1ccccc1 (repeat unit),-24.00 °C
7,*c1ccc(Oc2ccc(C(=O)c3cccc(C(=O)c4ccc(Oc5ccc(N6C(=O)c7ccc([Si](C)(C)c8ccc9c(c8)C(=O)N(*)C9=O)cc7C6=O)cc5)cc4)c3)cc2)cc1 (repeat unit),208.00 °C
8,*CC1CC(*)OC(CCC)O1 (repeat unit) [Poly(vinyl butyral)],54.42 ± 9.2 °C
9,*CCCCOCCCCOCCCCOC(=O)c1ccc(/N=C/c2cc(OCCCCCC)c(/C=C/c3cc(OCCCCCC)c(/C=C/c4cc(OCCCCCC)c(/C=N/c5ccc(C(=O)O*)cc5)cc4OCCCCCC)cc3OCCCCCC)cc2OCCCCCC)cc1 (repeat unit),14.30 °C
10,*C(=O)Nc1cccc(NC(=O)c2ccc3[nH]c(-c4cc(-c5nc6cc(*)ccc6[nH]5)cc(N5C(=O)c6ccccc6C5=O)c4)nc3c2)c1 (repeat unit),304.00 °C
11,*c1cccc(N2C(=O)c3c(c(-c4ccccc4)c(-c4ccc(-c5c(-c6ccccc6)c6c(c(-c7ccccc7)c5-c5ccccc5)C(=O)N(*)C6=O)cc4)c(-c4ccccc4)c3-c3ccccc3)C2=O)c1 (repeat unit),416.00 °C
12,*C(=O)c1ccc2c(c1)C(=O)N(c1cccc(C(=O)c3ccccc3N3C(=O)c4ccc(*)cc4C3=O)c1)C2=O (repeat unit),259.00 °C
13,*Nc1ccc(C(=O)c2c(C)c(C)c(C(=O)c3ccc(NC(=O)c4ccc(C(*)=O)cc4)cc3)c(C)c2C)cc1 (repeat unit),345.00 °C
14,*c1ccc(S(=O)(=O)c2ccc(N3C(=O)c4ccc(Oc5ccc(Oc6ccc7c(c6)C(=O)N(*)C7=O)cc5)cc4C3=O)cc2)cc1 (repeat unit),283.00 °C
15,*C(F)(F)C(*)(OC(F)(F)F)OC(F)(F)F (repeat unit),-60.00 °C
16,*Oc1ccc(S(=O)(=O)c2ccc(Oc3ccc(/C=N/c4ccc(Oc5ccc(-c6ccc(Oc7ccc(/N=C/c8ccc(*)cc8)cc7)cc6)cc5)cc4)cc3)cc2)cc1 (repeat unit),127.00 °C
17,*CCCCCC(*)CCCCCCCCCC (repeat unit),-65.00 °C

# The next lines start with the values.
row,glass transition temperature,Compound
1,60.50 °C,*Oc1ccc(Cc2ccc(OC(=O)CCCCC(*)=O)cc2)cc1 (repeat unit)
2,385.00 °C,*C(=O)c1ccc2c(c1)C(=O)N(c1ccc(-c3ccc(N4C(=O)c5ccc(*)cc5C4=O)cc3C)c(C)c1)C2=O (repeat unit)
3,105.00 °C,*C(=O)OCCCCCCCCOC(=O)c1ccc(NC(=O)c2ccc(N3C(=O)c4ccc(*)cc4C3=O)cc2)cc1 (repeat unit)
4,61.00 °C,*CCCCCCCCCCC(=O)Oc1ccc(-c2ccc(OC(=O)c3ccc4c(c3)C(=O)N(*)C4=O)cc2)cc1 (repeat unit)
5,283.00 °C,*c1ccc(S(=O)(=O)c2ccc(Oc3ccc(-c4nn(*)c(=O)c5ccccc45)c(F)c3)cc2)cc1 (repeat unit)
6,42.00 °C,*Oc1ccc(CC(NC(=O)Cc2ccc(OC(=O)CCCC(*)=O)cc2)C(=O)OCCCCCC)cc1 (repeat unit)
7,63.00 °C,*CC(*)(C)C(=O)OCCCCCCOc1ccc(-c2ccc(C#N)cc2)cc1 (repeat unit)
8,166.30 °C,*Oc1ccc(C(=O)O)c(C(=O)Nc2ccc(NC(=O)c3cc(*)ccc3C(=O)O)cc2)c1 (repeat unit)
9,27.00 °C,*Oc1ccc(CC(NC(=O)CCc2ccc(OC(=O)COCC(*)=O)cc2)C(=O)OCCOCCOCC)cc1 (repeat unit)
10,105.00 °C,*Cc1ccc(CNC(=O)CCCCCCCCCCC(=O)N*)cc1 (repeat unit)
11,44.00 °C,*CC(*)c1cc(C(=O)OCCCCCCCCCC)ccc1-c1ccc(OCCCCCCCC)cc1 (repeat unit)
12,85.00 °C,*CCCCCCCCCCCCCCNC(=O)CCc1ccc(CCC(=O)N*)cc1 (repeat unit)
13,308.00 °C,*Nc1ccc(C(C)(C)c2ccc(NC(=O)c3cc(C(*)=O)cc(N4C(=O)C5CC=CCC5C4=O)c3)cc2)cc1 (repeat unit)
14,86.00 °C,*CCCCCCCCCCCCN1C(=O)c2ccc(-c3ccc(-c4ccc5c(c4)C(=O)N(*)C5=O)cc3)cc2C1=O (repeat unit)
15,22.00 °C,*Oc1ccc(CC(NC(=O)CCc2ccc(OC(=O)CCCCCCCCC(*)=O)cc2)C(=O)OCCCCCC)cc1 (repeat unit)
16,340.00 ± 14 °C,*c1ccc(S(=O)(=O)c2ccc(N3C(=O)c4ccc(-c5ccc6c(c5)C(=O)N(*)C6=O)cc4C3=O)cc2)cc1 (repeat unit)
17,164.50 °C,*Oc1ccc(Sc2ccc(Oc3ccc(-c4ccc(-c5ccc(*)c(C(F)(F)F)c5)cc4)cc3C(F)(F)F)cc2)cc1 (repeat unit)
18,198.00 °C,*/C(C#N)=C/c1cc(OCCCCCCCCCC)c(/C=C(\C#N)c2cc(OCCCCCCCCCC)c(*)cc2OC)cc1OC (repeat unit)
19,90.00 °C,*Oc1ccc(C(C)(C)c2ccc(OC(=O)c3ccc(C(*)=O)cc3)c(C(C)CC)c2)cc1C(C)CC (repeat unit)
20,85.00 °C,*CCCCCCCCCCCCNC(=O)CCc1ccc(CCC(=O)N*)cc1 (repeat unit)
21,250.00 °C,*c1cc(N2C(=O)c3ccc(Oc4cccc5c(Oc6ccc7c(c6)C(=O)N(*)C7=O)cccc45)cc3C2=O)cc(C(F)(F)F)c1 (repeat unit)
22,107.00 °C,*CC(COc1ccc(C2CCCC(CC)(c3ccc(O*)cc3)C2)cc1)OC(C)=O (repeat unit)
23,190.00 °C,*CCCCCCN1C(=O)c2ccc(C(=O)Nc3ccc(S(=O)(=O)c4cccc(NC(=O)c5ccc6c(c5)C(=O)N(*)C6=O)c4)cc3)cc2C1=O (repeat unit)
24,18.50 °C,*CCCOCCCOC(=O)c1ccc(-c2ccc(C(=O)O*)cc2)cc1 (repeat unit)
25,182.00 °C,*CCCCNC(=O)c1ccc(C(C)(CC)c2ccc(C(=O)N*)cc2)cc1 (repeat unit)
26,-41.00 °C,*C/C=C/COC(=O)CCCCCCCCC(=O)O* (repeat unit)
27,16.00 °C,*CCCCCC(c1ccc(O)cc1)C(*)c1ccc(O)cc1C (repeat unit)
28,303.00 °C,*c1ccc2oc(-c3ccc(Oc4ccc(-c5nc6cc(C(*)(C(F)(F)F)C(F)(F)F)ccc6o5)cc4)cc3)nc2c1 (repeat unit)
29,186.00 °C,*Oc1ccc(C(C)(C)c2cc(Cl)c(OC(*)=O)c(Cl)c2)cc1 (repeat unit)
30,146 ± 1.3 °C,*Oc1ccc(Oc2ccc(C(=O)c3ccc(*)cc3)cc2)cc1 (repeat unit)
